Experimental data taken from US7498300B2, “CRFR1 selective ligands” (The Salk Institute for Biological Studies, priority 2001, dated 2009).

Key:
human CRFR1 = biological target: T1, human CRFR1 (Homo sapiens, UniProt P34998); assay: Competitive binding assay, CHO cells stably expressing human CRFR1, displacement of 125I-(Nle21,Tyr32) ovine CRF
T1 construct: expressed in transfected cells
T1 sequence (P34998 24-415): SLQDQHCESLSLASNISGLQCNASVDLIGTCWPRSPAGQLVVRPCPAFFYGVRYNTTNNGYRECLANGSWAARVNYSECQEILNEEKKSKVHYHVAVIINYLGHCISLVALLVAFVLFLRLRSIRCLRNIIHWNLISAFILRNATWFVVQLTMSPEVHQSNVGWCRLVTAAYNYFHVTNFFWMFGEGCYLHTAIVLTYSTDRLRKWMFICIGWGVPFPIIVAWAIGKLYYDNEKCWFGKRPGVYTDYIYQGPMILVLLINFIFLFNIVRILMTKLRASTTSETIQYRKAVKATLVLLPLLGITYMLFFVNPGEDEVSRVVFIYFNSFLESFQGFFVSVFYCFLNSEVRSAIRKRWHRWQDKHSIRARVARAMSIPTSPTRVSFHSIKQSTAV
Method: Binding affinity is a term used to refer to the strength of interaction between ligand and receptor. […] Ki (inhibitory binding affinity constant) is determined using a “standard” or “tracer” radioactive ligand and thus measures the displacement of the tracer from the receptor or binding protein; it is most properly expressed with reference to such tracer. However, so long as these assays are carefully performed under specific conditions with relatively low concentrations of receptor or the like, the calculated Ki will be substantially the same as its dissociation constant KD. […] It is particularly efficient to test for Ki because only a single tracer need be labelled, e.g. radioiodinated.
Binding assays with cells expressing human CRFR1 are carried out as described in the Chen et al. P.N.A.S., supra. The affinities of test peptides for CRFR1 and CRFR2 stably expressed in CHO cells were determined by competitive displacement of ^125I-(Nle^21, Tyr^32) ovine CRF (for CRFR1) or of [^125I-Tyr^o-]Ucn (for CRFR2) as described.

human CRFR2 = biological target: T2, human CRFR2 (Homo sapiens, UniProt Q13324); assay: Competitive binding assay, CHO cells stably expressing human CRFR2, displacement of [125I-Tyr0]Ucn
T2 construct: expressed in transfected cells
T2 sequence (Q13324 1-411): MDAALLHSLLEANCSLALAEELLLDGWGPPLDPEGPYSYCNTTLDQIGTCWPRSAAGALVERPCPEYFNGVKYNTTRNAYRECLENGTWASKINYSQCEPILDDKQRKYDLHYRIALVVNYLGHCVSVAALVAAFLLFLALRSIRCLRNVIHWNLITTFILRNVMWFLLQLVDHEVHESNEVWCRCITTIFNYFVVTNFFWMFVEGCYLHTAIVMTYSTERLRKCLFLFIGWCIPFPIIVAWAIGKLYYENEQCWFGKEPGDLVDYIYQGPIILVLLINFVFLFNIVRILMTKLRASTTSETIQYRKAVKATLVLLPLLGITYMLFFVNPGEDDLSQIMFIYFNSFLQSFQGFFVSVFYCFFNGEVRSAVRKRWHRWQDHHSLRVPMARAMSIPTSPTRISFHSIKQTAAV
Method: The affinities of test peptides for CRFR1 and CRFR2 stably expressed in CHO cells were determined by competitive displacement of ^125I-(Nle^21, Tyr^32) ovine CRF (for CRFR1) or of [^125I-Tyr^o-]Ucn (for CRFR2) as described.

[1] = In vivo lowering of blood pressure on peripheral administration; settings: administered peripherally
Method: (§1) In vivo testing is carried out using the general procedure set forth in C.

[2] = tested on: cultured rat pituitary cells; assay: In vitro stimulation of ACTH and β-endorphin secretion by cultured rat pituitary cells; assay type: cell-based
Method: as §1

Substance | binding to CRFR1 (in words) (human CRFR1) | binding to CRFR2 (in words) (human CRFR2) | lowering of blood pressure [1] | stimulation of the secretion of ACTH and β-END-LI [2]
(cyclo 31-34)[Ac-Pro^4, D-Phe^12, Nle^21,38, CML^27,37, Glu^31, Lys^34]-r/hCRF(4-41) [Example 6 D] | binds strongly | only very weakly | very significant lowering of blood pressure | stimulates
(cyclo 31-34)[Ac-Pro^4, D-Phe^12, Nle^21,38, Glu^31, Lys^34]-porcine CRF(4-41) [Example 3 C] | binds strongly | only very weakly | very significant lowering of blood pressure | stimulates
(cyclo 31-34)[Ac-Pro^4, D-Phe^12, Nle^18,21, Glu^31, Lys^34]-carp urotensin(4-41) [Example 3 F] | binds strongly | only very weakly | very significant lowering of blood pressure | stimulates
(cyclo 31-34)[Ac-Pro^4, D-Phe^12, Nle^21,38, CML^27,40, Glu^31, D-Ala^33, Lys^34]-r/hCRF(4-41) [Example 6 I] | high affinity | bind only weakly | very significant lowering of blood pressure | stimulates
(cyclo 31-34)[Ac-Pro^4, D-Phe^12, Nle^21,38, CML^27,40, Glu^31, D-Ser^33, Lys^34]-r/hCRF(4-41) [Example 6 H] |  | bind only weakly | very significant lowering of blood pressure | stimulates
(cyclo 31-34)[Ac-Pro^4, D-Phe^12, Nle^21,38, Glu^31, Lys^34]-oCRF(4-41) [Example 2] | bind strongly | poorly | very significant lowering of blood pressure | strongly stimulates
(cyclo 31-34)[Ac-Pro^4, D-Phe^12, Nle^14,18,24, Glu^31, Lys^34]-flounder urotensin(4-41) [Example 3 G] | binds strongly | only very weakly | very significant lowering of blood pressure | stimulates
(cyclo 31-34)[Ac-Pro^4, D-Phe^12, Nle^21,38, CML^27,40, Glu^31, Aib^33, Lys^34]-r/hCRF(4-41) [Example 6 G] | high affinity | bind only weakly | very significant lowering of blood pressure | stimulates
(cyclo 31-34)[Ac-Pro^4, D-Phe^12, CML^15, Nle^21,38, Glu^31, Lys^34]-r/hCRF(4-41) [Example 5] | binds strongly | only very weakly | very significant lowering of blood pressure | stimulates
(cyclo 31-34)[Ac-Pro^4, D-Phe^12, Nle^21,38, CML^27,40, Glu^31, Lys^34]-r/hCRF(4-41) [Example 6 E] | high affinity | bind only weakly | very significant lowering of blood pressure | stimulates
(cyclo 31-34)[Ac-Pro^4, D-Phe^12, Nle^21,38, CML^27,36, Glu^31, Lys^34]-r/hCRF(4-41) [Example 6 C] | binds strongly | only very weakly | very significant lowering of blood pressure | stimulates
(cyclo 31-34)[Ac-Pro^4, D-Phe^12, Nle^21,38, Glu^31, Aib^33, Lys^34]-r/hCRF(4-41) [Example 4] | bind strongly | only very weaker | very significant lowering of blood pressure | strongly stimulates
(cyclo 31-34)[Ac-Pro^4, CML^19, Nle^21,38, Glu^31, Lys^34]-r/hCRF(4-41) [Example 5 B] | binds strongly | only very weakly | very significant lowering of blood pressure | stimulates
(cyclo 31-34)[Ac-Pro^4, D-Phe^12, Nle^21,38, Glu^31, Lys^34, CML^37]-r/hCRF(4-41) [Example 5 D] | binds strongly | only very weakly | very significant lowering of blood pressure | stimulates
(cyclo 31-34)[Ac-Pro^4, D-Phe^12, Nle^21,38, CML^27,41, Glu^31, Lys^34]-r/hCRF(4-41) [Example 6 F] | binds strongly | only very weakly | very significant lowering of blood pressure | stimulates
(cyclo 31-34)[Ac-Pro^4, D-Phe^12, CML^17, Nle^21,38, Glu^31, Lys^34]-r/hCRF(4-41) [Example 5 E] | binds strongly | only very weakly | very significant lowering of blood pressure | stimulates
(cyclo 31-34)[Ac-Pro^4, D-Phe^12, Nle^21,37,38, Glu^31, Lys^34]-fish CRF(4-41) [Example 3 D] | binds strongly | only very weakly | very significant lowering of blood pressure | stimulates
(cyclo 31-34)[Ac-Pro^4, D-Phe^12, CML^14, Nle^21,38, Glu^31, Lys^34]-r/hCRF(4-41) [Example 5 A] | binds strongly | only very weakly | very significant lowering of blood pressure | stimulates
(cyclo 31-34)[Ac-Pro^4, D-Phe^12, CML^14,27, Nle^21,38, Glu^31, Lys^34]-r/hCRF(4-41) [Example 6 A] | binds strongly | only very weakly | very significant lowering of blood pressure | stimulates
(cyclo 31-34)[Ac-Pro^4, D-Phe^12, CML^18,27, Nle^21,38, Glu^31, Lys^34]-r/hCRF(4-41) [Example 6 B] | binds strongly | only very weakly | very significant lowering of blood pressure | stimulates
(cyclo 31-34)[Ac-Pro^4, D-Phe^12, Nle^21,38, CML^27, Glu^31, Lys^34]-r/hCRF(4-41) [Example 5 C] | binds strongly | only very weakly | very significant lowering of blood pressure | stimulates
(cyclo 31-34)[Ac-Pro^4, D-Phe^12, Nle^21,38, CML^27,36, Glu^31, D-His^32, Lys^34]-r/hCRF(4-41) [Example 6 C D-His^32 analog] | binds strongly | only very weakly | very significant lowering of blood pressure | stimulates
(cyclo 31-34)[Ac-Pro^4, D-Phe^12, Nle^21,38, CML^27, Glu^31, D-His^32, Lys^34]-r/hCRF(4-41) [Example 5 F] | binds strongly | only very weakly | very significant lowering of blood pressure | stimulates
(cyclo 31-34)[Ac-Pro^4, D-Phe^12, Nle^14,18,24, Glu^31, Lys^34]-maggy urotensin(4-41) [Example 3 E] | binds strongly | only very weakly | very significant lowering of blood pressure | stimulates
